These are literature values, as cited in US20100178285A1, “SYNERGISTIC ANTHELMINTIC COMPOSITION” (priority 2006, published 2010).

Molecules are shown by their SMILES. Where two headings read alike, the source gives them in different places.

The subject of data set [1] is Heligmosomoides polygyrus. As to conditions: in vitro, H. polygyrus.
Data set [2] has as its system gastrointestinal nematodes of sheep and goats.
For data set [3] the test system is unchanged. As to conditions: first farm, ten days after treatment.
The conditions of data set [4]: sheep.
In data set [5] the test system is mixed species of gastrointestinal nematodes. As to conditions: sheep, 7.5 mg/kg.
[6] abbreviates: second farm, 10 days after treatment.

For the compound `CC(C)C[C@H](NC(=O)[C@H]1O[C@@H]1C(=O)O)C(=O)NCCCCN=C(N)N` [Group E-64, E-64], the “effect of inhibitor on efficacy of the cysteine proteinases” value in data set [1] is on record as “completely inhibited”.

Regarding `CCCSc1ccc2nc(NC(=O)OC)[nH]c2c1` [albendazole], the “reduction in faecal egg count” value in data set [2] (setting [6]) is recorded as 59.4%.

`c1ccc([C@H]2CN3CCSC3=N2)cc1` [levamisole]: the “reduction in faecal egg count” value in data set [2] (first farm, ten days after treatment) was 98%. Besides, in data set [2] (setting [6]), the “reduction in faecal egg count” value was 99.4%. The “reduction in faecal egg count” value in data set [3] was 97%. For the same compound, the “free T3 and free T4 levels” value in data set [4] (either group (7.5 and 40 mg kg(−1))) is recorded as “not changed”. In data set [4] (groups 1 and 2), the inorganic phosphate levels result is reported as “decreased”, the serum albumin level result is listed as “increased” and the serum cholesterol level entry is on record as “increased”. The “triiodothyronine (T3) and thyroxin (T4) levels vs control” value in data set [4] (oral 7.5 mg kg(−1) (group 1)) is on record as “no significant changes”. Further, in data set [4] (oral 40 mg kg(−1) (group 2)), the “levels of total T3” value is listed as “increase” and the “levels of total T4” value is recorded as “decreased”. Also, in data set [4] (oral 7.5 and 40 mg kg(−1)), the “alanine aminotransferase (ALT) activity” value is “increased significantly”, the “aspartate aminotransferase (AST) activity” value is given as “increased significantly”, the “creatinine kinase (CK) activity” value is “increased significantly” and the “lactate dehydrogenase (LDH) activity” value was “increased significantly”. For the same compound, the “serum alkaline phosphatase (ALP) activities” value in data set [4] (oral 7.5 and 40 mg kg(−1)) is “decreased”. Further, the “reduction in EPG” value in data set [5] is given as 99.2%.
